Measured values taken from ChEMBL document CHEMBL1201862, “PubChem BioAssay data set” (2004).
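All cell lines were grown in 96-well plates and treated with compound for 48 hours. GI50: concentration for 50% inhibition of growth.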 Calls of active or inactive are those of the source. Rule as the data show it: active = GI50 up to about 1.1 µM and inactive = higher.

Columns and labels:
Test in all cases: NCI tumour cell line growth inhibition, 48 h
[1] = system: A549
[2] = system: ACHN
[3] = system: COLO 205
[4] = system: HCC 2998
[5] = system: HCT-116
[6] = system: HT-29
[7] = system: K562
[8] = system: KM12
[9] = system: MCF7
[10] = system: Malme-3M
[11] = system: NCI-H522
[12] = system: NCI/ADR-RES
[13] = system: OVCAR-4
[14] = system: RPMI-8226
[15] = system: SF-268
[16] = system: TK-10
[17] = system: UACC-62
[18] = system: BT-549
[19] = system: SK-OV-3
[20] = system: U-251

Measured: GI50

CC(=O)O/N=C1\C=Cc2c(no[n+]2[O-])C1=O
inactive: [1] 16.1 µM | [2] 17.1 µM | [3] 9.23 µM | [4] 22.1 µM | [5] 14.3 µM | [6] 17.5 µM | [7] 35 µM | [8] 18 µM | [9] 22.5 µM | [10] 14.7 µM | [11] 17 µM | [12] 27.6 µM | [13] 17.2 µM | [14] 30 µM | [15] 20.8 µM | [16] 15.6 µM | [17] 16 µM

[N-]=[N+]=CC(=O)OC1CCc2ccccc21 (centres undefined)
inactive: [2] 9.95 µM | [18] > 100 µM | [3] 73.1 µM | [4] > 100 µM | [5] > 100 µM | [6] > 100 µM | [7] > 100 µM | [9] 71.1 µM | [10] > 100 µM | [11] > 100 µM | [13] > 100 µM | [14] > 100 µM | [15] > 100 µM | [19] > 100 µM | [16] 59.6 µM | [20] > 100 µM | [17] > 100 µM

CC(=O)O[C@H]1CCC2[C@@H]3CCC4Nc5[nH]ncc5C[C@]4(C)C3CC[C@@]21C (some centres undefined)
inactive: [1] > 100 µM | [2] > 100 µM | [3] 37.2 µM | [4] 30.2 µM | [5] 64.9 µM | [6] 45.3 µM | [7] 36.3 µM | [8] 64.1 µM | [10] 32.7 µM | [11] 21.4 µM | [13] 81.1 µM | [14] 31.9 µM | [15] > 100 µM | [19] > 100 µM | [16] 74.6 µM | [20] 80.2 µM | [17] 18.9 µM

CNC(=O)NCCCCC(NC(C)=O)C(=O)NCc1ccccc1 (centres undefined)
inactive: [1] > 100 µM | [2] > 100 µM | [3] > 100 µM | [4] > 100 µM | [5] > 100 µM | [6] > 100 µM | [7] > 10 µM | [8] > 100 µM | [10] > 100 µM | [11] > 100 µM | [13] > 100 µM | [14] > 100 µM | [15] > 100 µM | [19] > 100 µM | [16] > 100 µM | [20] > 100 µM | [17] > 100 µM

COc1c(O)c(OC)c(C(=O)/C=C/c2ccccc2)c(O)c1OC [PEDICIN]
inactive: [2] 23.6 µM | [3] 41.7 µM | [4] 68.1 µM | [5] 17.7 µM | [6] 32.6 µM | [7] 40.6 µM | [8] 30.3 µM | [9] 26.9 µM | [10] 22.8 µM | [11] 16 µM | [12] 18.2 µM | [13] 27.9 µM | [14] 34.6 µM | [15] 29 µM | [19] > 100 µM | [16] 36.3 µM | [20] 31.9 µM

O=C(CC1(O)C(=O)Nc2c(Cl)cc(Cl)cc21)c1ccc(Br)cc1 (centres undefined)
inactive: [1] 20.7 µM | [2] 15.3 µM | [3] > 40.7 µM | [4] 39.5 µM | [5] 17.5 µM | [6] 37.7 µM | [7] 24.5 µM | [8] 15.2 µM | [10] > 41.3 µM | [11] 16.6 µM | [13] 12.4 µM | [14] 13 µM | [15] 16.4 µM | [19] 27 µM | [16] 17.6 µM | [20] 13.4 µM | [17] 9.08 µM

CC1=NN(c2nc(N)nc(-c3ccccc3S(N)(=O)=O)n2)C(C)(C)C1
inactive: [2] 4.44 µM | [4] 13.8 µM | [5] 10.2 µM | [6] 12.1 µM | [7] 35.2 µM | [8] 29.8 µM | [9] 22.7 µM | [11] 24.3 µM | [12] 9.33 µM | [13] 13.2 µM | [14] 27.2 µM | [15] 8.24 µM | [19] 9.02 µM | [16] 9.51 µM | [20] 8.51 µM

COc1ccc(CN2C(=O)[C@@H]3Cc4c(OC)c(C)c(OC)c(OC)c4[C@H](/C2=C\c2cc(OC)c(OC)c(C)c2OC)N3C(=O)OC(C)C)cc1
inactive: [1] 58.9 µM | [2] > 100 µM | [3] 12.4 µM | [4] 22.4 µM | [5] 9.66 µM | [6] 92.5 µM | [7] 25.3 µM | [8] > 100 µM | [10] 41.2 µM | [11] 8.75 µM | [13] 50.7 µM | [14] 8.34 µM | [15] > 100 µM | [19] 32.5 µM | [16] 78 µM | [20] > 100 µM | [17] 48.6 µM
